These are literature values, as cited in the CATMoS acute toxicity set (Mansouri et al. 2021).

Where “and” joins values, the source holds several entries; their conditions need not be identical. Equal entries are not always repeated.

The nature of this series: rat acute oral toxicity. To be noted: in vivo.
For `C=C1C(=CC=C2CCCC3(C)C2CCC3C(C)CCCC(C)C)CC(O)CC1O` (configuration not stated), the LD50 (as a rule, the dose expected to kill half of the subjects tested) was 340 mg/kg.

For `O=C(Cl)c1cc(Cl)cc(Cl)c1`, the LD50 is 794 mg/kg.

In the case of `Cc1ccc2ccccc2n1`, the LD50 is 1230 mg/kg.

In the case of `O=c1c2ccccc2nc2n1OCC2`, the LD50 was 395 mg/kg.

Consider `CCOC(C1=NCC(C)(C)CN1)c1cccc(F)c1` (configuration not stated), for which the LD50 is 750 mg/kg.

With `CNC[C@H](O)c1ccc(O)c(O)c1`, the LD50 was 30 mg/kg and 24 mg/kg.

Regarding `COP(=S)(OC)SCSc1ccccc1Cl`, the LD50 is 13 mg/kg.

Take `CN(CCO)c1ccc(N=Nc2c(Cl)cc([N+](=O)[O-])cc2Cl)cc1`: the LD50 is 2820 mg/kg.

Consider `CC(=O)OCCC1CCCCC1`, for which the LD50 was 3200 mg/kg.

For the compound `O=S(=O)(Cl)CCl`, the LD50 was 372 mg/kg.

For the compound `COc1ccc(NC(=O)CC(C)=O)cc1`, the LD50 is 1700 mg/kg.

Take `CCCCC(CC)COCCCN` (configuration not stated): the LD50 was 320 mg/kg.

Regarding `CCCCOC(=O)n1c(Br)nc(Br)c1Br`, the LD50 is 44 mg/kg.

For the compound `FC(F)(F)c1nc2c(Cl)c(Br)c(Br)c(Br)c2[nH]1`, the LD50 was 5.25 mg/kg.

For `NC1=NCC(CN2CCN(c3ccccc3)CC2)O1` (configuration not stated), the LD50 is 575 mg/kg.

Regarding `CC(=O)OC(C)C[N+](C)(C)C` (configuration not stated), the 50% lethal dose (LD50) is 750 mg/kg.

On to `CCCCC(CC)COC(N)=O` (configuration not stated), for which the LD50 was 3150 mg/kg.
